# Test results taken from patent US12600709B2, “Nonpeptide somatostatin type 5 receptor agonists and uses thereof” (Crinetics Pharmaceuticals, Inc., priority 2019, dated 2026).
# Like-named read-outs stand apart in the source and are kept apart here.
# Key:
# [1] = target: T1, human somatostatin receptor subtype 5 (Homo sapiens, UniProt P35346); test: cAMP assay for SST5R (inhibition of cAMP in CHO-K1 cells); assay type: cell-based; conditions: for EC50: inhibition of cAMP via human SST5 receptor, read-out: SST5 potency; for Fold selectivity for SST5 vs SST2: class symbols, SST5 receptor over SST2 receptor
# T1 construct: expressed in transfected cells
# In short: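 CHO-K1 cells stably expressing human SSTR5 were treated 20 min at 37 °C with compounds plus 1.6 μM NKH477 in HBSS, 0.5 mM HEPES pH 7.4, 0.1% BSA, 0.2 mM IBMX. Lysate cAMP measured by HTRF against a standard curve; EC50 from cAMP-versus-concentration plots.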
# [2] = target: T2, human somatostatin receptor subtype 2 (Homo sapiens, UniProt P30874); test: cAMP assay for SST2R (inhibition of cAMP in CHO-K1 cells); assay type: cell-based; conditions: Table B; inhibition of cAMP via human SST2 receptor; read-out: SST2 potency
# T2 construct: expressed in transfected cells
# Excerpt: General overview: All five SSTR subtypes are Gi coupled G-protein coupled receptors (GPCRs) that lead to decreases in intracellular cyclic AMP (cAMP) when activated by an agonist. Therefore, measurement of intracellular cAMP levels can be used to assess whether compounds of the invention are agonists of SSTR subtypes (John Kelly, Troy Stevens, W. Joseph Thompson, and Roland Seifert, Current Protocols in Pharmacology, 2005, 2.2.1-2.2). One example of an intracellular cAMP assay is described below.
# cAMP Assay Protocol for SST2R:
# Four days prior to the assay, 5,000 Chinese hamster ovary cells (CHO-K1, ATCC #CCL-61) stably expressing the human somatostatin receptor subtype 2 are plated in each well of a 96-well tissue culture-treated plate in Ham's F12 growth media (ThermoFisher #10-080-CM) supplemented with 10% donor bovine serum (Gemini Bio-Products #100-506), 100 U/mL penicillin; 100 μg/mL streptomycin; 2 mM L-glutamine (Gemini Bio-Products #400-110) and 0.2 mg/mL hygromycin B (GoldBio #31282-04-9). The cells are cultured at 37° C., 5% CO2 and 95% humidity. On the day of the assay, the media is aspirated and the cells are treated with 50 μL of 1.6 μM NKH477 (Sigma #N3290) plus various dilutions of compounds of the invention in assay buffer [1× Hank's Balanced Salt Solution (ThermoFisher #SH3058802), 0.5 mM HEPES pH 7.4, 0.1% bovine serum albumin, 0.2 mM 3-Isobutyl-1-methylxanthine (IBMX, VWR #200002-790)]. The cells are incubated for 20 minutes at 37° C. […] The cells are treated with 50 μL of lysis buffer (HRTF cAMP kit, Cisbio). The lysate is transferred to 384-well plates and cAMP detection and visualization antibodies are added and incubated for 1-24 hours at room temperature. The time-resolved fluorescent signal is read with a Tecan M1000Pro multiplate reader. The intracellular cAMP concentrations are calculated by regression to a standard curve and are plotted vs. the concentration of the compounds of the invention and the EC50 of the compounds are calculated using standard methods. All data manipulations are in GraphPad Prism v6 or v7.
# T2 sequence (P30874 whole entry): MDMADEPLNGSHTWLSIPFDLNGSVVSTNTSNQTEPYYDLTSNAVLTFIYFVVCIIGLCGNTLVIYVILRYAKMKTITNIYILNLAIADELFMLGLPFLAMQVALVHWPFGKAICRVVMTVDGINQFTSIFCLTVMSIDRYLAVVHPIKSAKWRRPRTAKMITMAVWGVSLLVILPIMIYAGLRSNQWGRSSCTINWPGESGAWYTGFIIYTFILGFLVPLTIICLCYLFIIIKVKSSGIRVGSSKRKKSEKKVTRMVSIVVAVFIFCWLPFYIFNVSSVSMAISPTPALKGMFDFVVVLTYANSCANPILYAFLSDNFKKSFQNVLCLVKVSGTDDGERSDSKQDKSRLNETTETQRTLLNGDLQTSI
# T1 sequence (P35346 whole entry): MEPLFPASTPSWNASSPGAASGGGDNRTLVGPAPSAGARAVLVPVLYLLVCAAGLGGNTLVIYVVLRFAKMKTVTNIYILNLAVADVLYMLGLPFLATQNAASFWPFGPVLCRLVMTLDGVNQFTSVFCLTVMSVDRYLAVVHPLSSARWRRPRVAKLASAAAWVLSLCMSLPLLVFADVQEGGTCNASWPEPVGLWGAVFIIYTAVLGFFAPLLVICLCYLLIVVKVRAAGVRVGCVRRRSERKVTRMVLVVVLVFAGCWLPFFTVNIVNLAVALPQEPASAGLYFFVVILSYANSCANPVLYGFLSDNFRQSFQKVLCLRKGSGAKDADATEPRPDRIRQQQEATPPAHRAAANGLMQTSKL
SMILES,EC50 ([1]; Table A),Fold selectivity for SST5 vs SST2 ([1]; Table B),EC50 ([1]; Table B),EC50 [2]
"Cc1ncc(C(=O)N[C@@H](C)C(F)(F)F)c(N2CC[C@](C)(N)C2)c1-c1ccc(F)c(F)c1 [1-279, 4-[(3S)-3-amino-3-methylpyrrolidin-1-yl]-5-(3,4-difluorophenyl)-6-methyl-N-[(2S)-1,1,1-trifluoropropan-2-yl]pyridine-3-carboxamide]",< 10 nM,+++ (+++=>500),< 10 nM,100 to 1000 nM
"C[C@H](NC(=O)c1cnc(C#N)c(-c2cc(F)cc(F)c2)c1N1CC[C@](C)(N)C1)C(F)(F)F [1-192, 4-[(3S)-3-amino-3-methylpyrrolidin-1-yl]-6-cyano-5-(3,5-difluorophenyl)-N-[(2S)-1,1,1-trifluoropropan-2-yl]pyridine-3-carboxamide]",< 10 nM,++ (++=100 to 499),< 10 nM,10 to 100 nM
"Cc1cc(C)cc(NC(=O)c2cncc(-c3cc(C)cc(C)c3)c2N2CC[C@H](N)C2)c1 [1-1, 4-[(3S)-3-aminopyrrolidin-1-yl]-N,5-bis(3,5-dimethylphenyl)pyridine-3-carboxamide]",< 10 nM,++ (++=100 to 499),< 10 nM,10 to 100 nM
"C[C@H](NC(=O)c1cnc(C(F)(F)F)c(-c2cc(F)cc(Cl)c2)c1N1CC[C@H](N)C1)C1CC1 [1-198, 4-[(3S)-3-aminopyrrolidin-1-yl]-5-(3-chloro-5-fluorophenyl)-N-[(1S)-1-cyclopropylethyl]-6-(trifluoromethyl)pyridine-3-carboxamide]",< 10 nM,++ (++=100 to 499),< 10 nM,10 to 100 nM
"Cc1ncc(C(=O)N[C@@H](C)C2CC2)c(N2CC[C@](C)(N)C2)c1-c1ccc(F)c(Cl)c1 [1-289, 4-[(3S)-3-amino-3-methylpyrrolidin-1-yl]-5-(3-chloro-4-fluorophenyl)-N-[(1S)-1-cyclopropylethyl]-6-methylpyridine-3-carboxamide]",< 10 nM,+++ (+++=>500),< 10 nM,100 to 1000 nM
"COCCOc1ncc(C(=O)N[C@@H](C)C2CC2)c(N2CC[C@](C)(N)C2)c1-c1cc(F)cc(F)c1 [1-179, 4-[(3S)-3-amino-3-methylpyrrolidin-1-yl]-N-[(1S)-1-cyclopropylethyl]-5-(3,5-difluorophenyl)-6-(2-methoxyethoxy)pyridine-3-carboxamide]",< 10 nM,+++ (+++=>500),< 10 nM,100 to 1000 nM
"C[C@H](NC(=O)c1cnc(C#N)c(-c2cc(F)cc(OC(F)F)c2)c1N1CC[C@](C)(N)C1)C(F)(F)F [1-180, 4-[(3S)-3-amino-3-methylpyrrolidin-1-yl]-6-cyano-5-[3-(difluoromethoxy)-5-fluorophenyl]-N-[(2S)-1,1,1-trifluoropropan-2-yl]pyridine-3-carboxamide]",< 10 nM,+++ (+++=>500),< 10 nM,10 to 100 nM
"C[C@]1(N)CCN(c2c(C(=O)NC3CCCCC3)ccnc2-c2cc(F)cc(F)c2)C1 [3-2, 3-[(3S)-3-amino-3-methylpyrrolidin-1-yl]-N-cyclohexyl-2-(3,5-difluorophenyl)pyridine-4-carboxamide]",< 10 nM,+++ (+++=>500),< 10 nM,> 1000 nM
"C[C@H](NC(=O)c1cnc(OCCC(=O)O)c(-c2cc(F)cc(F)c2)c1N1CC[C@](C)(N)C1)C1CC1 [1-264, 3-({4-[(3S)-3-amino-3-methylpyrrolidin-1-yl]-5-{[(1S)-1-cyclopropylethyl]carbamoyl}-3-(3,5-difluorophenyl)pyridin-2-yl}oxy)propanoic acid]",< 10 nM,+++ (+++=>500),< 10 nM,> 1000 nM
"COc1ncc(C(=O)NC2CC(F)(F)C2)c(N2CC[C@](C)(N)C2)c1-c1cc(F)cc(F)c1 [1-137, 4-[(3S)-3-amino-3-methylpyrrolidin-1-yl]-N-(3,3-difluorocyclobutyl)-5-(3,5-difluorophenyl)-6-methoxypyridine-3-carboxamide]",< 10 nM,+++ (+++=>500),< 10 nM,100 to 1000 nM
"C[C@H](NC(=O)c1cnc(OCC2COC2)c(-c2cc(F)cc(F)c2)c1N1CC[C@](C)(N)C1)C1CC1 [1-266, 4-[(3S)-3-amino-3-methylpyrrolidin-1-yl]-N-[(1S)-1-cyclopropylethyl]-5-(3,5-difluorophenyl)-6-[(oxetan-3-yl)methoxy]pyridine-3-carboxamide]",< 10 nM,+++ (+++=>500),< 10 nM,> 1000 nM
"Cc1ncc(C(=O)N[C@@H](C)C(F)(F)F)c(N2CC[C@H](N)C2)c1-c1cc(F)cc(OC(F)F)c1 [1-231, 4-[(3S)-3-aminopyrrolidin-1-yl]-5-[3-(difluoromethoxy)-5-fluorophenyl]-6-methyl-N-[(2S)-1,1,1-trifluoropropan-2-yl]pyridine-3-carboxamide]",< 10 nM,+++ (+++=>500),< 10 nM,100 to 1000 nM
"COc1ncc(C(=O)N[C@@H](C)C(F)(F)F)c(N2CC[C@](C)(N)C2)c1-c1cc(F)cc(OC(F)F)c1 [1-188, 4-[(3S)-3-amino-3-methylpyrrolidin-1-yl]-5-[3-(difluoromethoxy)-5-fluorophenyl]-6-methoxy-N-[(2S)-1,1,1-trifluoropropan-2-yl]pyridine-3-carboxamide]",< 10 nM,+++ (+++=>500),< 10 nM,100 to 1000 nM
"C[C@]1(N)CCN(c2c(C(=O)NC34CC(C3)C4)cnc(C#N)c2-c2cc(F)cc(F)c2)C1 [1-49, 4-[(3S)-3-amino-3-methylpyrrolidin-1-yl]-N-{bicyclo[1.1.1]pentan-1-yl}-6-cyano-5-(3,5-difluorophenyl)pyridine-3-carboxamide]",< 10 nM,+++ (+++=>500),< 10 nM,100 to 1000 nM
"C[C@H](NC(=O)c1cncc(-c2cccc3c2OC(F)(F)O3)c1N1CC[C@](C)(N)C1)C1CC1 [1-163, 4-[(3S)-3-amino-3-methylpyrrolidin-1-yl]-N-[(1S)-1-cyclopropylethyl]-5-(2,2-difluoro-2H-1,3-benzodioxol-4-yl)pyridine-3-carboxamide]",< 10 nM,++ (++=100 to 499),< 10 nM,100 to 1000 nM
"COc1cc(-c2c(C)ncc(C(=O)N[C@@H](C)C3CC3)c2N2CC[C@](C)(N)C2)ccn1 [1-157, 4-[(3S)-3-amino-3-methylpyrrolidin-1-yl]-N-[(1S)-1-cyclopropylethyl]-2′-methoxy-2-methyl-[3,4′-bipyridine]-5-carboxamide]",< 10 nM,+++ (+++=>500),< 10 nM,> 1000 nM
"COc1cc(-c2c(C(F)(F)F)ncc(C(=O)N[C@@H](C)C3CC3)c2N2CC[C@](C)(N)C2)ccn1 [1-208, 4-[(3S)-3-amino-3-methylpyrrolidin-1-yl]-N-[(1S)-1-cyclopropylethyl]-2′-methoxy-2-(trifluoromethyl)-[3,4′-bipyridine]-5-carboxamide]",< 10 nM,+++ (+++=>500),< 10 nM,100 to 1000 nM
"Cc1ncc(C(=O)N[C@@H](C)C(F)(F)F)c(N2CC[C@H](N)C2)c1-c1cccc(OC(F)F)c1 [1-232, 4-[(3S)-3-aminopyrrolidin-1-yl]-5-[3-(difluoromethoxy)phenyl]-6-methyl-N-[(2S)-1,1,1-trifluoropropan-2-yl]pyridine-3-carboxamide]",< 10 nM,+++ (+++=>500),< 10 nM,> 1000 nM
"COc1cc(C#N)cc(-c2c(C)ncc(C(=O)N[C@@H](C)C(F)(F)F)c2N2CC[C@](C)(N)C2)c1 [1-275, 4-[(3S)-3-amino-3-methylpyrrolidin-1-yl]-5-(3-cyano-5-methoxyphenyl)-6-methyl-N-[(2S)-1,1,1-trifluoropropan-2-yl]pyridine-3-carboxamide]",< 10 nM,+++ (+++=>500),< 10 nM,100 to 1000 nM
